Here are results for 75 compounds from PubChem BioAssay AID1224920 (Broad Institute, 2016).

Values joined by “and” are separate entries in the source; they are usually repeats but may differ in a detail not shown here. Identical values can stand only once. Active and inactive are the calls of the source.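 How the source made its calls: active means IC50 no higher than ten times the top tested dose; inconclusive means flat fit with 30 to 70% inhibition, or poor fit; inactive means IC50 above ten times the top dose.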 Bounds are passed on as bounds.

For orientation: IC50 means the concentration at which inhibition is half-maximal.

This experiment deals with Clostridium difficile clinical isolate growth, OD600, 24 h. Briefly: growth modulation of Clostridium difficile isolate – OD600, 9-point, retest, dose response (AID 1224920).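 Further: inhibitors lower culture turbidity so OD600 falls.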

`O=C(C[C@H]1CC[C@H]2[C@@H](COC[C@@H](O)CN2C(=O)Nc2ccc(Cl)c(Cl)c2)O1)NC1CCC1`: the IC50 was 19.4 µM.

As to `O=C(c1ccc(F)cc1)N1CC(=O)N2[C@@H](CO)[C@H](c3ccc(C#CCC4CCCC4)cc3)[C@@H]2C1`, the IC50 was 15.7 µM.

`COc1ccc(-c2ccc(C3[C@@H]4CN(Cc5ccccn5)C[C@H]3N4)cc2)cc1` (stereo not given in full): the concentration for half-maximal inhibition (IC50) was 70.1 µM.

For the compound `COc1cccc(S(=O)(=O)N2C[C@@H]3N[C@H](C2)C3c2ccc(-c3cccc(C)c3)cc2)c1` (stereo not given in full), the IC50 was 8.9 µM.

With `O=C(C[C@H]1CC[C@@H]2[C@H](COC[C@@H](O)CN2C(=O)Nc2ccc(Cl)c(Cl)c2)O1)NC1CCC1`, the IC50 is 27.5 µM.

For the compound `O=C(NC[C@@H]1N[C@@H](CO)[C@H]1c1ccc(C2=CCCCC2)cc1)c1cccc(F)c1`, the IC50 is 11.2 µM.

As to `O=C(C[C@H]1CC[C@@H]2[C@H](COC[C@@H](O)CN2C(=O)Nc2ccc(Cl)c(Cl)c2)O1)NCc1ccncc1`, the IC50 was 8.71 µM.

As to `COc1ccccc1CN1CC[C@@H]2[C@H](CO)Nc3ccc(C#Cc4ccccc4)cc3[C@@H]21`, the IC50 is 31.2 µM.

As to `OC[C@@H]1Nc2ccc(C#Cc3cccc(F)c3)cc2[C@@H]2NCC[C@H]12`, the IC50 is 42.8 µM.

As to `COc1ccc(C#Cc2ccc([C@H]3[C@H](CO)N4CCCCN(C(=O)Nc5cccc(F)c5)C[C@@H]34)cc2)cc1`, the IC50 was 20.9 µM.

For `COc1ccc(-c2ccc(C3[C@H]4CNC[C@@H]3N4Cc3ccc4c(c3)OCO4)cc2)cc1` (stereo not given in full), the IC50 was 53.1 µM.

`O=C(Nc1ccccc1)N1C[C@@H]2N[C@H](C1)C2c1ccc(-c2ccccc2F)cc1` (stereo not given in full): the IC50 was 52.3 µM.

On to `O=C(Nc1ccc(F)cc1)N1C[C@@H]2N[C@H](C1)C2c1ccc(-c2ccccc2F)cc1` (stereo not given in full), for which the IC50 was 36.7 µM and 57.5 µM.

As to `COc1ccc(S(=O)(=O)N2[C@@H]3CNC[C@H]2C3c2ccc(-c3cccc(C)c3)cc2)cc1` (stereo not given in full), the IC50 was 83 µM.

As to `OC[C@@H]1[C@@H](c2ccc(C#CC3CCCC3)cc2)[C@H]2CN(CCC(F)(F)F)CCCCN12`, the IC50 was 26.9 µM.

For the compound `O=C(Nc1cccc(F)c1)N1CCCCN2[C@@H](CO)[C@@H](c3ccc(-c4ccccc4F)cc3)[C@@H]2C1`, the IC50 was 13.1 µM.

As to `COc1cccc(C#Cc2ccc3c(c2)[C@@H]2[C@@H](CCN2C(=O)c2ccccc2F)[C@@H](CO)N3C)c1`, the IC50 is 27.7 µM.

`O=C(c1cnccn1)N1CC(=O)N2[C@H](C1)[C@@H](c1ccc(C#CCc3ccccc3)cc1)[C@@H]2CO`: the IC50 was > 240 µM (inactive).

Consider `O=C(Nc1cccc(F)c1)N1CCCCN2[C@H](CO)[C@H](c3ccc(C#CC4CC4)cc3)[C@H]2C1`, for which the IC50 is 47.6 µM.

On to `Cc1cccc(-c2ccc(C3[C@@H]4CN(Cc5cccc(F)c5)C[C@H]3N4)cc2)c1` (stereo not given in full), for which the IC50 is 5.89 µM and 8.61 µM.

As to `CCCC#Cc1ccc([C@H]2[C@H](CO)N3CCCCN(S(=O)(=O)c4ccccc4C)C[C@@H]23)cc1`, the IC50 is > 240 µM (inactive).

For the compound `COc1cccc(-c2ccc(C3[C@H]4CNC[C@@H]3N4Cc3ccc(F)cc3)cc2)c1` (stereo not given in full), the IC50 was 11.9 µM.

Turning to `COc1cccc(-c2ccc(C3[C@@H]4CN(S(=O)(=O)c5ccccc5F)C[C@H]3N4)cc2)c1` (stereo not given in full), the half-inhibitory concentration (IC50) is 82 µM.

Turning to `COc1ccccc1C#Cc1ccc2c(c1)[C@H]1[C@H](CCN1C(=O)c1ccc(F)cc1)[C@H](CO)N2`, the IC50 was 0.759 µM.

In the case of `COc1cccc(S(=O)(=O)N2C[C@@H]3N[C@H](C2)C3c2ccc(/C=C/c3ccccc3)cc2)c1` (stereo not given in full), the 50% inhibitory concentration (IC50) was 12.7 µM.

Take `COc1cccc(-c2ccc(C3[C@@H]4CN(C(=O)c5ccc(F)cc5)C[C@H]3N4)cc2)c1` (stereo not given in full): the IC50 was 65.4 µM.

Take `OC[C@H]1Nc2ccc(-c3ccccc3)cc2[C@@H]2[C@H]1CCN2Cc1ccccc1F`: the concentration for half-maximal inhibition (IC50) is 129 µM.

As for `O=C(c1ccccc1)N1CC[C@@H]2[C@H]1c1cc(-c3ccc(F)cc3)ccc1N[C@@H]2CO`, the IC50 was 129 µM.

Regarding `Cc1cccc(S(=O)(=O)N2CCCCN3[C@H](CO)[C@H](c4ccc(C#CC5CC5)cc4)[C@H]3C2)c1`, the IC50 is 27.9 µM.

For the compound `Cc1ccccc1-c1ccc(C2[C@H]3CNC[C@@H]2N3Cc2ccc3c(c2)OCO3)cc1` (stereo not given in full), the IC50 was 27.7 µM.

Turning to `COc1ccccc1NC(=O)N1CCCCN2[C@H](CO)[C@H](c3ccc(-c4ccc(C)cc4)cc3)[C@H]2C1`, the IC50 was 14.5 µM.

Take `OC[C@H]1[C@H](c2ccc(C#CC3CCCC3)cc2)[C@H]2CN(CCC(F)(F)F)CCCCN21`: the IC50 was 16.8 µM.

`O=C(C[C@H]1CC[C@H]2[C@@H](COC[C@H](O)CN2C(=O)Nc2cc(Cl)cc(Cl)c2)O1)N1CCOCC1`: the IC50 was 15 µM.

Turning to `COc1cccc(CN2[C@@H]3CNC[C@H]2C3c2ccc(-c3ccccc3C)cc2)c1` (stereo not given in full), the IC50 is 29.5 µM.

On to `O=C(C[C@H]1CC[C@H]2[C@@H](COC[C@H](O)CN2C(=O)Nc2ccc(C(F)(F)F)cc2)O1)NC1Cc2ccccc2C1`, for which the half-maximal inhibitory concentration (IC50) is 3.82 µM.

`COc1ccc(C#Cc2ccc([C@@H]3[C@H](CO)N4CCCCN(Cc5ccccc5F)C[C@@H]34)cc2)cc1`: the IC50 was 8.12 µM.

As to `OC[C@@H]1[C@H](c2ccc(C#CC3CCCC3)cc2)[C@H]2CN(CCC(F)(F)F)CCCCN12`, the IC50 is 26.6 µM.

Consider `O=C(Nc1ccc(C(F)(F)F)cc1)N1[C@@H]2CNC[C@H]1C2c1ccc(-c2ccccc2)cc1` (stereo not given in full), for which the IC50 was 18.2 µM and 28.6 µM.

Regarding `O=C(NC1CCCCC1)N1C[C@@H]2N[C@H](C1)C2c1ccc(-c2cccc(F)c2)cc1` (stereo not given in full), the IC50 was 61.2 µM.

Turning to `O=C(C[C@@H]1CC[C@@H]2[C@H](COC[C@@H](O)CN2C(=O)Nc2ccc(Cl)c(Cl)c2)O1)NC1CCC1`, the IC50 is 5.89 µM.

As for `C[C@@H]1CN([C@@H](C)CO)C(=O)c2ccccc2-c2ccccc2CO[C@H]1CN(C)Cc1ccccc1C(F)(F)F`, the IC50 is > 270 µM (inactive).

In the case of `O=C(Nc1ccc(F)cc1)N1CCCCN2[C@H](CO)[C@H](c3ccc(-c4ccccc4F)cc3)[C@H]2C1`, the IC50 was 55.9 µM.

With `CC(C)CC#Cc1ccc([C@H]2[C@H](CO)N3CCCCN(C(=O)Nc4ccccc4)C[C@@H]23)cc1`, the IC50 was 11.1 µM.

Take `Cc1ccccc1-c1ccc([C@H]2[C@@H](CO)N3CCCCN(C(=O)Nc4ccc(F)cc4)C[C@H]23)cc1`: the IC50 was 27.4 µM.

In the case of `CCCNC(=O)C[C@@H]1CC[C@@H]2[C@H](COC[C@H](O)CN2C(=O)Nc2ccc(Cl)c(Cl)c2)O1`, the IC50 is 12 µM.

`COc1cc(CN2[C@@H]3CNC[C@H]2C3c2ccc(/C=C/c3ccccc3)cc2)cc(OC)c1` (stereo not given in full): the IC50 is 12.2 µM.

As for `O=S(=O)(c1ccccc1F)N1[C@@H]2CNC[C@H]1C2c1ccc(/C=C/c2ccccc2)cc1` (stereo not given in full), the IC50 was 73.5 µM.

Take `Cc1ccc(-c2ccc([C@H]3[C@@H](CO)N4CCCCN(C(=O)Nc5ccccc5)C[C@H]34)cc2)cc1`: the IC50 was 37.7 µM.

For `COc1cc(CN2[C@@H]3CNC[C@H]2C3c2ccc(-c3ccccc3C)cc2)cc(OC)c1` (stereo not given in full), the concentration for half-maximal inhibition (IC50) is 18.8 µM.

With `Cc1ccccc1-c1ccc(C2[C@@H]3CN(C(=O)Nc4ccc(F)cc4)C[C@H]2N3)cc1` (stereo not given in full), the 50% inhibitory concentration (IC50) is 40.5 µM.

With `C/C=C/c1ccc(C2[C@@H]3CN(C(=O)Nc4ccc(C(F)(F)F)cc4)C[C@H]2N3)cc1` (stereo not given in full), the IC50 was 13.7 µM and 10.6 µM.

For `O=C(Nc1ccc(C(F)(F)F)cc1)N1C[C@@H]2N[C@H](C1)C2c1ccc(-c2cccnc2)cc1` (stereo not given in full), the concentration for half-maximal inhibition (IC50) is 15.2 µM.

In the case of `CCCNC(=O)C[C@H]1CC[C@@H]2[C@H](COC[C@@H](O)CN2C(=O)Nc2ccc(Cl)c(Cl)c2)O1`, the IC50 was 20.9 µM.

With `O=C(c1ccc(F)cc1)N1C[C@@H]2N[C@H](C1)C2c1ccc(/C=C/c2ccccc2)cc1` (stereo not given in full), the concentration for half-maximal inhibition (IC50) was 13 µM.

`O=C(NC[C@H]1N[C@H](CO)[C@@H]1c1ccc(C2=CCCCC2)cc1)c1cccc(F)c1`: the IC50 is 58.8 µM.

In the case of `OC[C@H]1[C@@H](c2ccc(-c3cccc(F)c3)cc2)[C@@H]2CN(CCC(F)(F)F)CCCCN12`, the IC50 was 53.8 µM.

As for `COc1cccc(CN2C[C@@H]3N[C@H](C2)C3c2ccc(-c3ccccc3OC)cc2)c1` (stereo not given in full), the IC50 is 34.1 µM.

Turning to `COc1ccc(NC(=O)N2CCCCN3[C@H](CO)[C@@H](c4ccc(C#Cc5ccccc5)cc4)[C@H]3C2)cc1`, the IC50 is 25.7 µM.

As to `N#C[C@@H]1[C@@H](c2ccc(C#Cc3cccnc3)cc2)[C@@H](CO)N1C(=O)NC1CCCC1`, the IC50 was > 240 µM (inactive).

Regarding `COc1ccc(C#Cc2ccc([C@H]3[C@@H](CO)N4CCCCN(Cc5ccccc5F)C[C@H]34)cc2)cc1`, the IC50 was 4.95 µM.

As for `Cc1ccccc1S(=O)(=O)N1C[C@@H]2N[C@H](C1)C2c1ccc(-c2cccc(C#N)c2)cc1` (stereo not given in full), the IC50 was 91.2 µM.

As to `COc1ccc(C#Cc2ccc([C@@H]3[C@@H](CO)N4CCCCN(C(=O)Nc5cccc(F)c5)C[C@H]34)cc2)cc1`, the IC50 was 14.4 µM.

For `O=S(=O)(Cc1ccccc1)N1CCCCN2[C@@H](CO)[C@@H](c3ccc(-c4ccc(F)cc4)cc3)[C@@H]2C1`, the IC50 was 38 µM.

For `COc1ccccc1C#Cc1ccc2c(c1)[C@@H]1[C@@H](CCN1C(=O)c1ccncc1)[C@@H](CO)N2`, the IC50 was > 120 µM (inactive).

`Cc1ccc(-c2ccc([C@H]3[C@H](CO)N4CCCCN(C(=O)Nc5cccc(F)c5)C[C@@H]34)cc2)cc1`: the IC50 was 11.2 µM.

Regarding `O=C(Nc1cccc(F)c1)N1CCCCN2[C@H](CO)[C@H](c3ccc(-c4ccccc4F)cc3)[C@H]2C1`, the IC50 is 24.5 µM.

With `O=C(C[C@@H]1CC[C@@H]2[C@H](COC[C@H](O)CN2C(=O)Nc2cc(Cl)cc(Cl)c2)O1)N1CCOCC1`, the IC50 is 20.4 µM.

As for `COc1ccc(C#Cc2ccc([C@@H]3[C@@H](CO)N4CCCCN(Cc5ccccc5F)C[C@@H]34)cc2)cc1`, the IC50 was 25.4 µM.

As for `O=S(=O)(c1ccccc1)N1C[C@@H]2N[C@H](C1)C2c1ccc(-c2ccc(F)cc2)cc1` (stereo not given in full), the IC50 is 51.4 µM.

For `O=S(=O)(c1ccc(F)cc1)N1C[C@@H]2N[C@H](C1)C2c1ccc(/C=C/c2ccccc2)cc1` (stereo not given in full), the IC50 is 8.8 µM.

Turning to `Cc1ccccc1-c1ccc(C2[C@@H]3CN(C(=O)Nc4cccc(F)c4)C[C@H]2N3)cc1` (stereo not given in full), the IC50 is 39 µM.

In the case of `Fc1ccc(F)c(CN2[C@@H]3CNC[C@H]2C3c2ccc(-c3ccccc3)cc2)c1` (stereo not given in full), the half-inhibitory concentration (IC50) was 44.8 µM.

For the compound `Cc1ccccc1-c1ccc(C2[C@H]3CNC[C@@H]2N3C(=O)Nc2ccc(C(F)(F)F)cc2)cc1` (stereo not given in full), the IC50 is 17.4 µM.

On to `O=C(Nc1cccc(Cl)c1)N1[C@@H]2CNC[C@H]1C2c1ccc(-c2ccccc2)cc1` (stereo not given in full), for which the IC50 was 44.8 µM and 74.3 µM.

In the case of `CC(C)CC#Cc1ccc([C@@H]2[C@@H](CO)N3CCCCN(C(=O)Nc4ccccc4)C[C@H]23)cc1`, the IC50 was 10.9 µM.
